| SMILES | melting point |
| --- | --- |
| Clc1ncc(-c2nc(Cl)nc(Cl)c2Br)c(Cl)n1 | 136 to 138 °C |
| Cc1ccnc2c1C(=O)CC(c1nccs1)C2 (configuration not stated) | 88 to 89 °C |
| CCCCCCCCC(O)CNCCCCCCNCC(O)CCCCCCCC (configuration not stated) | 118 to 127 °C |
| COc1ccc(CN2CCN(CCCN3CCN(Cc4ccc(OC)cc4)CC3)CC2)cc1 | 86 to 87 °C |
| CC1(C)COC(c2c(Cl)cc(Cl)cc2-c2ccc(F)cc2)=N1 | 93 to 95 °C |
| COC(=O)c1ccc(C#Cc2cc(C#Cc3ccc(C(=O)OC)cc3)cc(C#Cc3ccc(C(=O)OC)cc3)c2)cc1 | 177 °C |
| COC1(OCCc2nc(C(C)C)c(Sc3cc(Cl)cc(Cl)c3)n2C)C2CC3CC(C2)CC1C3 (configuration not stated) | 74.5 to 76 °C |
| N#CC(C#N)=Cc1ccc(C=O)cc1 | 142 °C |
| Nc1c(SC(F)(F)F)cnn1-c1c(Cl)cc(C(F)(F)F)cc1Cl | 113 to 117 °C |
| CCOC(=O)N(C)c1c(OC)cc(Cc2cnc(N)nc2N)cc1OC | 187 to 188 °C |
| CC(=O)OC1C(C)OC(n2cc(F)c(=O)[nH]c2=O)C1OC(C)=O (configuration not stated) | 176 to 177 °C |
| Nc1nc(-c2cc(Cl)ccc2Cl)nc(N2CCCC2)n1 | 191 to 193 °C |
| CN(C)Cc1nc(-c2ncn3c2CN(C)C(=O)c2c(Cl)cccc2-3)no1 | 152 to 153 °C |
| Cc1cccc2c1N(CC(=O)N1CC3CCC(CC3)C1)C(=O)C(NC(=O)Nc1cccc(-c3nnn[nH]3)c1)N=C2c1ccccc1F (configuration not stated) | 210 to 213 °C |
| CNc1cc(C(=O)Nc2c(C)cc(C(F)(C(F)(F)F)C(F)(F)F)cc2C)ccc1C#N | 204 to 206 °C |
| O=C(/C=C/C(=O)c1ccc(Cl)cc1)c1ccc(Cl)cc1 | 174 to 176 °C |
| O=C(CCCCC1(C(=O)O)CCCC1)CCCCC1(C(=O)O)CCCC1 | 99 to 103 °C |

| SMILES | melting point |
| --- | --- |
| Nc1nc(Cl)nc2cnc(Oc3ccc(F)cc3F)cc12 | > 300 °C |
| CON1C(=O)CC2(CCN(C(=O)OC(C)(C)C)CC2)C1=O | 117 °C |
| c1cn(Cc2ccc3c(c2)Cc2c(-c4ccsc4)n[nH]c2-3)nn1 | 250 to 254 °C |
| Cc1ccc2c(c1)N=C(N1CCN(C)CC1)c1cscc1O2 | 222 °C |
| CC(C)NC(=S)N1CCc2[nH]cnc2C1C1CCCCC1 (configuration not stated) | 218 °C |
| CC(C)(C)OC(=O)CS | 72 °C |
| Cn1c(COc2ccc(CC3SC(=O)N(C(c4ccccc4)(c4ccccc4)c4ccccc4)C3=O)cc2)nc2ccc(Oc3ccc(C#N)cc3)cc21 (configuration not stated) | 135 to 138 °C |
| COC1(C=CCOc2ccc3c(-c4ccc(F)cc4)c4c(cc3c2)C(=O)OC4)CCOCC1 | 144 to 148 °C |
| CCCn1c(=O)c2c(nc(C=Cc3cc(OC)c(OC)cc3S(=O)(=O)N(CC)CC)n2C)n(CCC)c1=O | 227 to 228 °C |
| C[C@@H](S[C@H]1CO[C@H](/C=C/C=C/c2ccc(C#N)cc2)OC1)[C@](O)(Cn1cncn1)c1ccc(F)cc1F | 147 to 149 °C |
| CCC(CC)C(=O)Nc1ccco1 | 100 °C |
| CCc1nn(CCO)c(CC)c1Oc1cc(C#N)cc(C#N)c1 | 125 °C |
| CC(C)C(=O)OC(OC(=O)NC1(C(=O)O)CC1)C(C)C (configuration not stated) | 127 to 129 °C |
| Cc1ccc(C)c([PH](=O)O)c1 | 73 to 80 °C |
| Cc1cc(OCc2coc(C=Cc3ccc(OC(F)F)cc3)n2)ccc1COCCn1ccnn1 | 119 to 120 °C |
| CC(C)CC(=O)Nc1ccc(Cl)c(-c2ccnc3c(C(=O)c4cccs4)cnn23)c1 | 162 to 165 °C |

Results, then the compound that gave them:

| melting point | SMILES |
| --- | --- |
| 78 to 80 °C | O[C@@H]1CN(Cc2ccccc2)C[C@H]1Oc1c(Cl)cccc1Cl (relative stereo) |
| 141 to 143 °C | CNc1ccc(C)cc1C(=O)Cc1nnnn1C |
| 217 to 219 °C | N#CC(C(=O)N1CCOCC1)=C1Nc2ccccc2O1 |
| 218 to 220 °C | CCc1cc(CC)c2oc(C(=O)O)cc(=O)c2c1O |
| 272 to 274 °C | COc1ccc(Nc2cc(-c3ccccc3)nc3ccccc23)cc1Cl |
| 196 to 198 °C | O=C1c2c(O)ccc(O)c2C(=O)c2c(NCCNCCO)ccc(O)c21 |
| 249 to 250 °C | CN(C(=O)c1cnc(N2CCNC2=O)nc1N)c1cccc(C(F)(F)F)c1 |
| 162 to 163 °C | Nc1ccc(Oc2ncnc(Oc3ccccc3Cl)c2F)c(Cl)c1Cl |
| 124 to 126 °C | CC(=O)Nc1cc(C(C)=O)ccc1OCCCCl |
| 214 to 215 °C | CC(C)(C)OC(=O)N1CCn2c(c(C(N)=O)c(C#N)c2-c2ccccc2)C1 |
| 186 °C | O=C(O)c1ncsc1-c1cccc(I)c1 |
| 236 °C | CN1CCC(C(=O)Nc2cccc(-c3ccnc4c(C(=O)c5cccs5)cnn34)c2)CC1 |
| 50 to 52 °C | O=[N+]([O-])c1ccc(SCCCCl)cc1 |
| 47 to 49 °C | CN(Cc1ccccc1)c1nc(Cl)ncc1F |
| 47 °C | CCCC=Cn1c2ccccc2c2ccccc21 |
| > 250 °C | c1ccc(-c2ccc3[nH]c4c(ccc5cc[nH]c54)c3c2)cc1 |
| 146 to 147 °C | Cc1cc(O)c([N+](=O)[O-])c(=O)n1CC(=O)OCc1ccccc1 |
| 163 to 165 °C | COc1cn(-c2ccccc2F)nc(-c2ccnn2-c2ccccc2)c1=O |
| 108 °C | CCN=C(Cc1ccccc1)N1CC2C(=O)CCC(c3ccccc3)(c3ccccc3)C2C1 (configuration not stated) |
| 186 to 188 °C | COc1ccc(-n2c(=O)n(OCc3ccccc3)c(=O)c3cc(F)c(N4CCCC4)nc32)cc1 |

| melting point | SMILES |
| --- | --- |
| 234 to 236 °C | O=C1NCCN1c1ccc(S(=O)(=O)Nc2ccc(Cl)cc2)cc1 |
| 63 to 65 °C | O=C(c1ccccc1)c1cc(Cl)ccc1N=C=S |
| 125 to 128 °C | Nc1nc2c(s1)CCN(CC=Cc1ccccc1[N+](=O)[O-])CC2 |
| 203 to 206 °C | NC1=NN(c2ccccn2)C(c2ccccc2)C1 (configuration not stated) |
| 93 to 96 °C | O=C1CC(S(=O)Cc2ccccc2)N1CCCc1ccccc1 (configuration not stated) |
| 106 to 109 °C | CC(=O)Nc1ccc(OC(=O)COCc2ccccc2)cc1 |
| 109 to 110 °C | CN1C(=O)CC[C@]2(C)c3ccc(CCc4ccc5ccccc5c4)cc3CC[C@@H]12 |
| 186 to 188 °C | Cc1cccc(-c2nc3c(C)cccc3[nH]2)c1[N+](=O)[O-] |
| 30 to 32 °C | CCCOC(=O)Cc1ccc2c(c1)C(=O)c1ccccc1CO2 |
| 119 to 121 °C | C=C(c1ccccc1)c1cc2cc(OC)ccc2[nH]1 |
| 223 to 224 °C | O=C1C(Cc2ccccc2)NC(=S)N1c1nc2ccc(F)cc2s1 (configuration not stated) |
| 165 to 168 °C | Cc1cc2c(cc1C)C1(CO2)C(=O)N(Cc2ccccn2)c2ccccc21 (configuration not stated) |
| 219 to 220 °C | O=c1c(Cc2ccccc2)c(-c2ncco2)n(-c2ccccc2)c2cc(Cl)ccc12 |
| 213 to 216 °C | O=C1c2ccc3cc(C(=O)N4CCN(Cc5ccccc5)CC4)cnc3c2N=CC1[N+](=O)[O-] (configuration not stated) |
| 109 to 110 °C | OCCN(c1ccccc1)c1ccccc1 |
| 178 to 180 °C | Nc1nc(C2CCN(C(=O)Nc3ccccc3)CC2)c2ccccc2n1 |
| 108 to 110 °C | CC(C)OC(=O)Nc1ccc(N)c(N)c1 |
| 108 to 115 °C | COc1ccc2cc([C@H](C)C(=O)OCCN(C)C(=O)c3ccc(CO[N+](=O)[O-])cc3)ccc2c1 |
| 153 to 155 °C | CC(C)c1cccc(C(C)C)c1NC(=O)CN1CCN(CCSc2nc3cccc([N+](=O)[O-])c3o2)CC1 |

Reference: a melting point compilation (Tetko et al.; mined from patent text by program, amines drawn as free bases though some values may be those of a salt)
